Assay results from US10550105B2 (Ribon Therapeutics Inc., priority 2018, dated 2020).

Target: PARP7 (Homo sapiens (Human), UniProt Q7Z3E1)
Test: Enzymatic assay for inhibition of PARP7: TR-FRET displacement of biotinylated Probe A from the TIPARP active site
Format: binding
Details: Table A-1
Summary of the method: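 Percent inhibition derives from the ratio of 665 to 615 nm emission, which reports how much Probe A remains bound to TIPARP. Plates sat 30 min at 25° C before the time-resolved read (320 nm excitation).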

PARP7, sequence (Q7Z3E1 whole entry): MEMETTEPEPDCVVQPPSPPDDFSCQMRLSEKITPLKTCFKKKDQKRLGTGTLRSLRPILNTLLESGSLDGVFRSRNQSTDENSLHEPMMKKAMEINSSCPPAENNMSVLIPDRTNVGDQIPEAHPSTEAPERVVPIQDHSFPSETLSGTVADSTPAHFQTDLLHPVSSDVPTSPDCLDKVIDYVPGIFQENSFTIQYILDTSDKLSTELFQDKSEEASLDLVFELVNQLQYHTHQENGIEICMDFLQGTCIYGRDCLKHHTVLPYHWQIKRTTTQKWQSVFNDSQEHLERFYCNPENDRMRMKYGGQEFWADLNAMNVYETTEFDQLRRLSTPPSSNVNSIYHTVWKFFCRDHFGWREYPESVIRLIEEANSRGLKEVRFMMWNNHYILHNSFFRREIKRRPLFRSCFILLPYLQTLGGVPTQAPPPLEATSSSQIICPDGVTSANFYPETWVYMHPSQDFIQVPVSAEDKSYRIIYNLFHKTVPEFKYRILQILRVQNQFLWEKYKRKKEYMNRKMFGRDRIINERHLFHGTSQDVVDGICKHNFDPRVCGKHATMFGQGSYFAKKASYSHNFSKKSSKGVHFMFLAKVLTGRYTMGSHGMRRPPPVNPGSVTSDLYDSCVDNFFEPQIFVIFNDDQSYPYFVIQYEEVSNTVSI

| Compound | IC50 |
| --- | --- |
| N#Cc1cnc(N2CCN(C(=O)c3cccc(OC[C@@H]4CCCN4c4cn[nH]c(=O)c4C(F)(F)F)c3)CC2)nc1 [Example 439, (S)-2-(4-(3-((1-(6-Oxo-5-(trifluoromethyl)-1,6-dihydropyridazin-4-yl)pyrrolidin-2-yl)methoxy)benzoyl)piperazin-1-yl)pyrimidine-5-carbonitrile] | < 100 nM |
| COC[C@@H](COCCS(=O)(=O)N1CCN(c2ncc(C(F)(F)F)cn2)CC1)Nc1cn[nH]c(=O)c1C(F)(F)F [Example 624, (S)-5-((1-Methoxy-3-(2-[(4-(5-(trifluoromethyl)pyrimidin-2-yl)piperazin-1-yl)sulfonyl)ethoxy)propan-2-yl)amino)-4-(trifluoromethyl)pyridazin-3(2H)-one] | < 100 nM |
| O=C(c1cccc(OC[C@H]2c3ccccc3CN2c2cn[nH]c(=O)c2C(F)(F)F)c1)N1CCN(c2ccc(C(F)(F)F)cn2)CC1 (single isomer, unassigned) [Example 30 Isomer A] | ≥ 1000 nM |
| N#Cc1cnc(N2CCN(C(=O)c3cncc(OC[C@H]4c5ccccc5CN4c4cn[nH]c(=O)c4C(F)(F)F)c3)CC2)nc1 [Example 396, (R)-2-(4-(5-((2-(6-Oxo-5-(trifluoromethyl)-1,6-dihydropyridazin-4-yl)isoindolin-1-yl)methoxy)nicotinoyl)piperazin-1-yl)pyrimidine-5-carbonitrile] | ≥ 1000 nM |
| CC(=O)N1CCN(CCOc2cccc3c2CN(c2cn[nH]c(=O)c2Cl)C3)CC1 [Example 230, 5-(4-(2-(4-Acetylpiperazin-1-yl)ethoxy)isoindolin-2-yl)-4-chloropyridazin-3(2H)-one] | 100 to 1000 nM |
| O=C(CC1CCC(COc2cn[nH]c(=O)c2C(F)(F)F)N1)N1CCN(c2ncc(C(F)(F)F)cn2)CC1 (centres unmarked) [Example 642, 5-((5-(2-Oxo-2-(4-(5-(trifluoromethyl)pyrimidin-2-yl)piperazin-1-yl)ethyl)pyrrolidin-2-yl)methoxy)-4-(trifluoromethyl)pyridazin-3(2H)-one] | 100 to 1000 nM |
| CO[C@H](C)[C@@H](COCCC(=O)N1CCN(c2ccc(C#N)cn2)CC1)Nc1cn[nH]c(=O)c1C(F)(F)F [Example 596, 6-(4-[3-[(2R,3R)-3-Methoxy-2-[[6-oxo-5-(trifluoromethyl)-1,6-dihydropyridazin-4-yl]amino]butoxy]propanoyl]piperazin-1-yl)pyridine-3-carbonitrile] | < 100 nM |
| NC(=O)COc1cccc2c1CN(c1cn[nH]c(=O)c1C(F)(F)F)C2 [Example 204, 2-((2-(6-Oxo-5-(trifluoromethyl)-1,6-dihydropyridazin-4-yl)isoindolin-4-yl)oxy)acetamide] | 100 to 1000 nM |
| C[C@H](COc1cn[nH]c(=O)c1C(F)(F)F)OCCC(=O)N1CCN(c2ncc(C(F)(F)F)cn2)CC1 (single isomer, unassigned) [Example 544 Isomer D] | 100 to 1000 nM |
| O=C(CCOC[C@H](CO)Nc1cn[nH]c(=O)c1C(F)(F)F)N1CCN(c2ncc(C(F)(F)F)cn2)CC1 [Example 603, 5-[[(2S)-1-Hydroxy-3-(3-oxo-3-[4-[5-(trifluoromethyl)pyrimidin-2-yl]piperazin-1-yl]propoxy)propan-2-yl]amino]-4-(trifluoromethyl)-2,3-dihydropyridazin-3-one] | < 100 nM |
| C[C@@H](COCCC(=O)N1CCN(c2ccc(Cl)cn2)CC1)Oc1cn[nH]c(=O)c1C(F)(F)F (single isomer, unassigned) [Example 539 Isomer A] | < 100 nM |
| O=C(C[C@@H]1CC[C@@H](CNc2cn[nH]c(=O)c2C(F)(F)F)O1)N1CCN(c2ncc(Cl)cn2)CC1 (single isomer, unassigned) [Example 567 Isomer C] | < 100 nM |
| COC[C@@H](COCCC(=O)N1CCN(c2ncc(C(F)(F)F)s2)CC1)Nc1cn[nH]c(=O)c1C(F)(F)F [Example 712, (S)-5-((1-Methoxy-3-(3-oxo-3-(4-(5-(trifluoromethyl)thiazol-2-yl)piperazin-1-yl)propoxy)propan-2-yl)amino)-4-(trifluoromethyl)pyridazin-3(2H)-one] | < 100 nM |

The next lines start with the values.

| IC50 | Compound |
| --- | --- |
| < 100 nM | C[C@@H](COc1cn[nH]c(=O)c1Cl)OCCC(=O)N1CCN(c2ncc(Cl)cn2)CC1 (single isomer, unassigned) [Example 577 Isomer B] |
| < 100 nM | C[C@@H](COCCC(=O)N1CCN(c2ccc(Cl)cn2)CC1)Nc1cn[nH]c(=O)c1C(F)(F)F [Example 563, 5-[[(2S)-1-[3-[4-(5-Chloropyridin-2-yl)piperazin-1-yl]-3-oxopropoxy]propan-2-yl]amino]-4-(trifluoromethyl)-2,3-dihydropyridazin-3-one] |
| < 100 nM | C[C@@H](COCCC(=O)N1CCN(c2ncc(C(F)(F)F)s2)CC1)Oc1cn[nH]c(=O)c1C(F)(F)F [Example 708, (S)-5-((1-(3-Oxo-3-(4-(5-(trifluoromethyl)thiazol-2-yl)piperazin-1-yl)propoxy)propan-2-yl)oxy)-4-(trifluoromethyl)pyridazin-3(2H)-one] |
| 100 to 1000 nM | COc1cccc2c1CN(c1cn[nH]c(=O)c1C)C2 [Example 167, 5-(4-Methoxyisoindolin-2-yl)-4-methylpyridazin-3(2H)-one] |
| 100 to 1000 nM | COc1ccc2c(c1)CN(c1cn[nH]c(=O)c1Cl)C2 [Example 155, 4-Chloro-5-(5-methoxyisoindolin-2-yl)pyridazin-3(2H)-one] |
| < 100 nM | O=C(C[C@@H]1CC[C@@H]([C@@H]2CCCN2c2cn[nH]c(=O)c2C(F)(F)F)O1)N1CCN(c2ccc(Cl)cn2)CC1 [Example 148A, 5-[(2S)-2-[(2S,5S)-5-[2-[4-(5-chloropyridin-2-yl)piperazin-1-yl]-2-oxoethyl]oxolan-2-yl]pyrrolidin-1-yl]-4-(trifluoromethyl)-2,3-dihydropyridazin-3-one] |
| < 100 nM | C[C@@H](COCCC(=O)N1CCN(c2ncc(C#N)s2)CC1)Oc1cn[nH]c(=O)c1C(F)(F)F [Example 711, (S)-2-(4-(3-(2-((6-Oxo-5-(trifluoromethyl)-1,6-dihydropyridazin-4-yl)oxy)propoxy)propanoyl)piperazin-1-yl)thiazole-5-carbonitrile] |
| < 100 nM | N#Cc1cnc(N2CCN(C(=O)c3cccc(OCC4c5ccccc5CN4c4cn[nH]c(=O)c4C(F)(F)F)c3)CC2)nc1 (centres unmarked) [Example 361, 2-(4-(3-((2-(6-Oxo-5-(trifluoromethyl)-1,6-dihydropyridazin-4-yl)isoindolin-1-yl)methoxy)benzoyl)piperazin-1-yl)pyrimidine-5-carbonitrile] |
| < 100 nM | C[C@@H](COCCC(=O)N1CCN(c2ncc(C#N)cn2)CC1)Oc1cn[nH]c(=O)c1C(F)(F)F [Example 579, 2-(4-[3-[(2S)-2-[[6-Oxo-5-(trifluoromethyl)-1,6-dihydropyridazin-4-yl]oxy]propoxy]propanoyl]piperazin-1-yl)pyrimidine-5-carbonitrile] |
| < 100 nM | C[C@@H]1C[C@@H](COc2cccc(C(=O)N3CCN(c4ccc(C#N)cn4)CC3)c2)N(c2cn[nH]c(=O)c2C(F)(F)F)C1 [Example 75, 6-[4-[(3-[[(2S,4R)-4-methyl-1-[6-oxo-5-(trifluoromethyl)-1,6-dihydropyridazin-4-yl]pyrrolidin-2-yl]methoxy]phenyl)carbonyl]piperazin-1-yl]pyridine-3-carbonitrile] |
